Here are results for 8 molecules from ChEMBL document CHEMBL2163337, “Trigohowilols A-G, degraded diterpenoids from the stems of Trigonostemon howii” (J Nat Prod, 2012).

Experiment [1] has as its system Staphylococcus aureus. Put plainly: Antibacterial activity against methicillin-resistant Staphylococcus aureus clinical isolate 98 by two-fold dilution method. In kind it is functional.
Experiment [2] concerns Staphylococcus aureus. Put plainly: Antibacterial activity against methicillin-resistant Staphylococcus aureus clinical isolate 92 by two-fold dilution method. In kind it is functional.
The next experiment concerns Pseudomonas aeruginosa. The experiment can be described thus: Antibacterial activity against Pseudomonas aeruginosa ATCC 27853 by two-fold dilution method. In kind it is functional.
Experiment [3] relates to Staphylococcus aureus. The experiment can be described thus: Antibacterial activity against Staphylococcus aureus ATCC 25923 by two-fold dilution method. Type of experiment: functional.
The subject of a further experiment is SW480. Put plainly: Cytotoxicity against human SW480 cells by MTT assay. In kind it is functional, cell-based. On the technique in general: Tetrazolium assays rely on reduction of a dye to a coloured formazan, in cell work by metabolically active cells.
A further experiment concerns MCF7. The experiment can be described thus: Cytotoxicity against human MCF7 cells by MTT assay. In kind it is functional, cell-based.
Another experiment deals with A549. The experiment can be described thus: Cytotoxicity against human A549 cells by MTT assay. Type of experiment: functional, cell-based.
The next experiment has as its system HL-60. Put plainly: Cytotoxicity against human HL60 cells by MTT assay. In kind it is functional, cell-based.
The test system of the next experiment is SMMC-7721. The experiment can be described thus: Cytotoxicity against human SMMC7721 cells by MTT assay. In kind it is functional, cell-based.

pIC50: −log10 of the molar value. ≈ marks a conversion by molar mass, not a printed value.

A word on the MIC: it is the least concentration at which growth counts as inhibited. As a reminder, the pIC50 is the IC50 on a negative log10 scale, so that one unit is a factor of ten. Low values mean a high IC50, high ones a low IC50. As for `COc1cc2c(cc1C)C(=O)C=C1C2=C(C2=Cc3c(cc(O)c4cc(C)c(O)cc34)C(C)(C)C2=O)C(=O)C1(C)C` [TRIGOHOWILOL E], the MIC in the experiment with Staphylococcus aureus [1] came out at 12.5 µg/mL (≈ 23.4 µM); with Staphylococcus aureus [2], 25 µg/mL (≈ 46.8 µM); in the experiment with Pseudomonas aeruginosa it was 50 µg/mL (≈ 93.5 µM); against Staphylococcus aureus [3], 6.25 µg/mL (≈ 11.7 µM). For the same molecule, the pIC50 is 5.03 with SW480; 4.90 in the experiment on MCF7; 5.01 with A549; 5.58 in the experiment on HL-60; 5.49 in the experiment with SMMC-7721.

Turning to `COc1cc2c3c(cc(O)c2cc1C)C(C)(C)C(=O)C(C1=C2C(=CC(=O)c4cc(C)c(O)cc42)C(C)(C)C1=O)=C3` [TRIGOHOWILOL D], the MIC in the experiment on Staphylococcus aureus [1] was 12.5 µg/mL (≈ 23.4 µM); in the experiment on Staphylococcus aureus [2], 12.5 µg/mL (≈ 23.4 µM); in the experiment on Pseudomonas aeruginosa it was 25 µg/mL (≈ 46.8 µM); in the experiment on Staphylococcus aureus [3], 12.5 µg/mL (≈ 23.4 µM). For the same molecule, the pIC50 was under 4.40 with SW480; under 4.40 in the experiment with MCF7; under 4.40 in the experiment on A549; 4.61 in the experiment with HL-60; under 4.40 in the experiment with SMMC-7721.

As for `CN[C@H](CC(C)C)C(=O)N[C@H]1C(=O)N[C@@H](CC(N)=O)C(=O)N[C@H]2C(=O)N[C@H]3C(=O)N[C@H](C(=O)N[C@H](C(=O)O)c4cc(O)cc(O)c4-c4cc3ccc4O)[C@H](O)c3ccc(c(Cl)c3)Oc3cc2cc(c3O[C@@H]2O[C@H](CO)[C@@H](O)[C@H](O)[C@H]2O[C@H]2C[C@](C)(N)[C@H](O)[C@H](C)O2)Oc2ccc(cc2Cl)[C@H]1O.Cl` [VANCOMYCIN HYDROCHLORIDE], the MIC in the experiment with Staphylococcus aureus [1], against Staphylococcus aureus [2], against Pseudomonas aeruginosa and against Staphylococcus aureus [3] was 0.78 µg/mL throughout.

`COc1cc2c(cc1C)C(=O)C=C1C2=C(C2=Cc3c(cc(O)c4cc(C)c(OC)cc34)C(C)(C)C2=O)C(=O)C1(C)C` [TRIGOHOWILOL F]: the MIC in the experiment on Staphylococcus aureus [1] stood at 12.5 µg/mL (≈ 22.8 µM); with Staphylococcus aureus [2], 12.5 µg/mL (≈ 22.8 µM); in the experiment with Pseudomonas aeruginosa, 25 µg/mL (≈ 45.6 µM); against Staphylococcus aureus [3], 12.5 µg/mL (≈ 22.8 µM). Moreover, the pIC50 in the experiment on SW480 is 5.45; with MCF7, 5.38; in the experiment on A549, 5.44; in the experiment on HL-60, 5.60; with SMMC-7721 it was 5.63.

As to `Cc1cc2c(cc1O)C1=C(C3=Cc4c(cc(O)c5cc(C)c(O)cc45)C(C)(C)C3=O)C(=O)C(C)(C)C1=CC2=O` [TRIGOHOWILOL C], the MIC in the experiment on Staphylococcus aureus [1], against Staphylococcus aureus [2], with Pseudomonas aeruginosa and in the experiment on Staphylococcus aureus [3] was 25 µg/mL (≈ 48 µM) each time. Further, the pIC50 in the experiment with SW480, with MCF7, in the experiment with A549, with HL-60 and in the experiment with SMMC-7721 was under 4.40 throughout.

Consider `Cc1cc2ccc3c(c2cc1O)C=C(O)C(=O)C3(C)C` [TRIGOHOWILOL B], for which the MIC came out at 50 µg/mL (≈ 186 µM) with Staphylococcus aureus [1], 50 µg/mL (≈ 186 µM) in the experiment on Staphylococcus aureus [2], 25 µg/mL (≈ 93.2 µM) against Pseudomonas aeruginosa and 25 µg/mL (≈ 93.2 µM) against Staphylococcus aureus [3]. Also, the pIC50 in the experiment with SW480, in the experiment on MCF7, with A549, in the experiment on HL-60 and with SMMC-7721 was under 4.40 each time.

Take `COc1cc2c3c(cc(O)c2cc1C)C(C)(C)C(=O)C=C3` [TRIGOHOWILOL A]: the MIC in the experiment on Staphylococcus aureus [1], with Staphylococcus aureus [2], in the experiment with Pseudomonas aeruginosa and in the experiment with Staphylococcus aureus [3] was 25 µg/mL (≈ 88.5 µM) in each case. The pIC50 was under 4.40 in the experiment on SW480; under 4.40 with MCF7; 4.45 in the experiment on A549; 4.60 in the experiment on HL-60; under 4.40 in the experiment with SMMC-7721.

As to `COc1cc2c(cc1C)C(=O)C=C1C2=C(C2=C3C(=CC(=O)c4cc(C)c(OC)cc43)C(C)(C)C2=O)C(=O)C1(C)C` [TRIGOHOWILOL G], the MIC against Staphylococcus aureus [1], against Staphylococcus aureus [2], in the experiment on Pseudomonas aeruginosa and against Staphylococcus aureus [3] was over 50 µg/mL throughout. Besides, the pIC50 in the experiment with SW480 is 5.08; in the experiment on MCF7, 4.81; with A549 it was 5.27; in the experiment on HL-60 it was 4.75; with SMMC-7721 it was 5.56.
